According to ChEMBL document CHEMBL5137037, “Phage Display Selected Cyclic Peptide Inhibitors of Kallikrein-Related Peptidases 5 and 7 and Their In Vivo Delivery to the Skin” (J Med Chem, 2022):
Numbered stars: 1 amine (or outer) side, 2 acyl side, 3 side chain; on linkers, the order of the positions; unused ones are H or OH. Bridge positions count the residues as written; N and C are the ends. Peptide text beside a SMILES is read from it. * marks the point of attachment. Pyridine(2,6-diCH2) = c1cc(C[*:1])nc(C[*:2])c1; Pyrrolidin1yl(2S-Ac) = CC(=O)[C@@H]1CCCN1*; CH2COCH2 = O=C(C[*:1])C[*:2]

Key:
Kallikrein-7 = Kallikrein-7 (Homo sapiens, UniProt P49862); assay: Inhibition of C-terminal poly-His-tagged human recombinant KLK7 (30 to 253 residues) transfected in CHO cells assessed as inhibition constant using KHLY-pNA as fluorogenic substrate incubated for 30 mins by fluorescence plate reader assay; format: cell-based
Kallikrein-5 = target: T1, Kallikrein-5 (Homo sapiens, UniProt Q9Y337); assay: Inhibition of C-terminal poly-His-tagged human recombinant KLK5 (30 to 293 residues) transfected in CHO cells assessed as inhibition constant using Boc-VPR-AMC as fluorogenic substrate incubated for 30 mins by fluorescence plate reader assay; format: cell-based
T1 sequence (Q9Y337 whole entry): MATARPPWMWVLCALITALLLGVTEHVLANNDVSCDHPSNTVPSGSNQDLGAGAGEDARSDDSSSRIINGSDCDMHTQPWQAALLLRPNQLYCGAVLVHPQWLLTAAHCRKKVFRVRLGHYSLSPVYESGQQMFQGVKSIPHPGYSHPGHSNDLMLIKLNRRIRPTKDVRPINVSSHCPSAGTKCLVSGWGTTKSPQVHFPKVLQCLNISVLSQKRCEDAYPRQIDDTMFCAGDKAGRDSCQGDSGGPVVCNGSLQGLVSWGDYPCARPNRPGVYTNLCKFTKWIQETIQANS

Chain of Kallikrein-7 (P49862 whole entry, the tested form may be a part): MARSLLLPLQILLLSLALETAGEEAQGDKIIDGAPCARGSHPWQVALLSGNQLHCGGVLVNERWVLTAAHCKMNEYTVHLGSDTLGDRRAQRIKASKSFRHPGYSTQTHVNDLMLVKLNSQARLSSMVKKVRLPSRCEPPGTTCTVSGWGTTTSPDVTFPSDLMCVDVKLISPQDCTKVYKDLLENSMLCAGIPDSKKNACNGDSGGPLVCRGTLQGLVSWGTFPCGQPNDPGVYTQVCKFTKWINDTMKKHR

SMILES: CCCCCCCCCCCCCCCC(=O)NCCCC[C@H](NC(=O)[C@H](CCC(=O)O)NC(=O)[C@H](Cc1ccc(O)cc1)NC(=O)[C@H](CCC(=O)O)NC(=O)COCCOCCNC(=O)c1ccc(-c2c3ccc(=O)cc-3oc3cc(O)ccc23)c(C(=O)O)c1)C(=O)N[C@@H](CCC(=O)O)C(=O)N[C@@H](Cc1ccc(O)cc1)C(=O)N[C@@H](CCC(=O)O)C(=O)NCCOCCOCC(=O)NCCCC[C@H](NC(=O)CNC(=O)[C@@H]1CSCC(=O)CSC[C@H](NC(=O)[C@@H]2CCCN2)C(=O)N[C@@H](CC(C)C)C(=O)N[C@@H](Cc2ccc(O)cc2)C(=O)N[C@@H](CCCC)C(=O)N[C@@H](C)C(=O)N[C@@H](CCCNC(=N)N)C(=O)N1)C(=O)NCC(N)=O
- Ki (Kallikrein-7): 7 nM

SMILES: CC(C)C[C@@H]1NC(=O)[C@@H](NC(=O)[C@H](CCC(N)=O)NC(=O)[C@@H]2CCCN2C(=O)[C@H](CC(N)=O)NC(=O)[C@H](C)NC(=O)[C@@H]2CSCc3cccc(n3)CSC[C@H](NC(=O)[C@H](C)N)C(=O)N[C@@H]([C@@H](C)O)C(=O)N[C@@H](CCCNC(=N)N)C(=O)N[C@@H](CCC(=O)O)C(=O)N[C@@H](Cc3ccc(O)cc3)C(=O)N[C@@H](CC(N)=O)C(=O)N3CCC[C@H]3C(=O)N[C@@H](CCC(N)=O)C(=O)N2)CSCc2cccc(n2)CSC[C@@H](C(=O)N[C@@H](Cc2cnc[nH]2)C(=O)O)NC1=O
- Ki (Kallikrein-5): 6.1 nM

SMILES: CC(C)C[C@@H]1NC(=O)[C@H](Cc2ccc(O)cc2)NC(=O)[C@H](CC(C)C)NC(=O)[C@@H](N)CSCc2cccc(n2)CSC[C@@H](C(=O)N[C@@H](CO)C(=O)O)NC(=O)[C@H](C)NC1=O (H-CLYLACS-OH; linker 1-6 via Pyridine(2,6-diCH2))
- Ki (Kallikrein-7): 200 nM

SMILES: CC(C)C[C@@H]1NC(=O)[C@@H](NC(=O)[C@@H](N)Cc2ccccc2)CSCC(=O)CSC[C@@H](C(=O)N[C@@H](CCC(N)=O)C(=O)N2CCC[C@H]2C(=O)N2CCC[C@H]2C(=O)N[C@@H](CCC(=O)O)C(=O)N[C@@H](C)C(=O)N[C@H]2CSCC(=O)CSC[C@@H](C(=O)N[C@@H](CCC(=O)O)C(=O)O)NC(=O)[C@H](CCC(N)=O)NC(=O)[C@H](CO)NC(=O)[C@@H]3CCCN3C2=O)NC(=O)[C@H](Cc2c[nH]c3ccccc23)NC(=O)[C@@H]2CCCN2C(=O)[C@H](Cc2c[nH]c3ccccc23)NC1=O (H-FCLWPWCQPPEACPSQCE-OH; linker 2-7, 13-17 via CH2COCH2)
- Ki (Kallikrein-7): > 1000 nM

SMILES: CC[C@H](C)[C@@H]1NC(=O)[C@H](CCCNC(=N)N)NC(=O)[C@H](Cc2ccc(O)cc2)NC(=O)[C@H](CC(C)C)NC(=O)[C@@H](NC(=O)[C@H](CCC(N)=O)NC(=O)[C@@H]2CCCN2C(=O)[C@@H]2CSCc3cccc(n3)CSC[C@H](NC(=O)[C@@H](N)Cc3c[nH]cn3)C(=O)N[C@@H](CCCNC(=N)N)C(=O)N[C@@H](CCCCN)C(=O)NCC(=O)N[C@@H](CC(C)C)C(=O)N[C@@H](CC(=O)O)C(=O)N[C@@H](CCCNC(=N)N)C(=O)N2)CSCc2cccc(n2)CSC[C@@H](C(=O)N[C@@H](CO)C(N)=O)NC1=O (H-HCRKGLDRCPQCLYRICS-NH2; linker 2-9, 12-17 via Pyridine(2,6-diCH2))
- Ki (Kallikrein-7): 66 nM

SMILES: CC(C)C[C@@H]1NC(=O)[C@@H](NC(=O)[C@@H]2CCCN2)CSCc2cccc(n2)CSC[C@@H](C(=O)N[C@@H](CO)C(=O)O)NC(=O)[C@H](CO)NC(=O)[C@H](CC(C)C)NC(=O)[C@H](Cc2ccccc2)NC1=O (H-PCLFLSCS-OH; linker 2-7 via Pyridine(2,6-diCH2))
- Ki (Kallikrein-7): 220 nM

SMILES: CC(C)C[C@@H]1NC(=O)[C@H](Cc2ccc(O)cc2)NC(=O)[C@H](CC(C)C)NC(=O)[C@@H](NC(=O)[C@@H]2CCCN2)CSCc2cccc(n2)CSC[C@@H](C(=O)N[C@@H](CO)C(=O)O)NC(=O)[C@H](C)NC1=O (H-PCLYLACS-OH; linker 2-7 via Pyridine(2,6-diCH2))
- Ki (Kallikrein-7): 17.5 nM

SMILES: CC(C)C[C@@H]1NC(=O)[C@H](Cc2ccc(O)cc2)NC(=O)[C@H](CC(C)C)NC(=O)[C@@H](NC(=O)[C@@H]2CCCN2)CSCC(=O)CSC[C@@H](C(=O)N[C@@H](CO)C(=O)O)NC(=O)[C@H](CCC(N)=O)NC(=O)[C@H](C)NC1=O (H-PCLYLAQCS-OH; linker 2-8 via CH2COCH2)
- Ki (Kallikrein-7): 36 nM

SMILES: CC(=O)[C@@H]1CCCN1C(=O)[C@@H]1CSCc2cccc(n2)CSC[C@H](NC(=O)[C@@H]2CCCN2)C(=O)N[C@@H](CC(C)C)C(=O)N[C@@H](Cc2ccc(O)cc2)C(=O)N[C@@H](CC(C)C)C(=O)N[C@@H](CO)C(=O)N1 (H-PCLYLSC-{Pyrrolidin1yl(2S-Ac)}; linker 2-7 via Pyridine(2,6-diCH2))
- Ki (Kallikrein-7): 50 nM

SMILES: CC(C)C[C@@H]1NC(=O)[C@@H](NC(=O)[C@@H]2CCCN2)CSCc2cccc(n2)CSC[C@@H](C(=O)N[C@@H](CO)C(=O)O)NC(=O)[C@H](CO)NC(=O)[C@H](CC(C)C)NC(=O)[C@H](Cc2ccc(O)cc2)NC1=O (H-PCLYLSCS-OH; linker 2-7 via Pyridine(2,6-diCH2))
- Ki (Kallikrein-7): 29.4 nM

SMILES: CC(C)C[C@@H]1NC(=O)[C@@H](NC(=O)[C@@H]2CCCN2)CSCc2cccc(n2)CSC[C@@H](C(=O)N[C@@H](CO)C(=O)O)NC(=O)[C@H]([C@@H](C)O)NC(=O)[C@H](CC(C)C)NC(=O)[C@H](Cc2ccc(O)cc2)NC1=O (H-PCLYLTCS-OH; linker 2-7 via Pyridine(2,6-diCH2))
- Ki (Kallikrein-7): 52 nM

SMILES: CSCC[C@@H]1NC(=O)[C@H](Cc2ccc(O)cc2)NC(=O)[C@H](CC(C)C)NC(=O)[C@@H](NC(=O)[C@@H]2CCCN2)CSCC(=O)CSC[C@@H](C(=O)N[C@@H](CO)C(=O)O)NC(=O)[C@H](CCCNC(=N)N)NC(=O)[C@H](C)NC1=O (H-PCLYMARCS-OH; linker 2-8 via CH2COCH2)
- Ki (Kallikrein-7): 10.1 nM

SMILES: CC(C)C[C@@H]1NC(=O)[C@@H](NC(=O)[C@@H]2CCCN2)CSCc2cccc(n2)CSC[C@@H](C(=O)N[C@@H](CO)C(=O)O)NC(=O)[C@H](CO)NC(=O)[C@H](CCC(N)=O)NC(=O)[C@H](Cc2ccc(O)cc2)NC1=O (H-PCLYQSCS-OH; linker 2-7 via Pyridine(2,6-diCH2))
- Ki (Kallikrein-7): 440 nM

SMILES: CC(C)C[C@@H]1NC(=O)[C@@H](NC(=O)[C@@H]2CCCN2)CSCc2cccc(n2)CSC[C@@H](C(=O)N[C@@H](CO)C(=O)O)NC(=O)[C@H](CO)NC(=O)[C@H](CCCNC(=N)N)NC(=O)[C@H](Cc2ccc(O)cc2)NC1=O (H-PCLYRSCS-OH; linker 2-7 via Pyridine(2,6-diCH2))
- Ki (Kallikrein-7): 53 nM

SMILES: CC[C@H](C)[C@@H]1NC(=O)[C@H](Cc2ccc(O)cc2)NC(=O)[C@H](CC(C)C)NC(=O)[C@@H](NC(=O)[C@@H](N)CCC(N)=O)CSCc2cccc(n2)CSC[C@@H](C(=O)N2CCC[C@H]2C(=O)N[C@@H](CO)C(=O)N[C@@H](C)C(=O)N[C@@H](C)C(=O)N[C@@H](CCCCN)C(=O)N[C@H]2CSCc3cccc(n3)CSC[C@@H](C(=O)N[C@@H](CCC(N)=O)C(N)=O)NC(=O)CNC(=O)[C@H](CC(N)=O)NC(=O)[C@H](CC(=O)O)NC2=O)NC(=O)[C@H](C)NC1=O (H-QCLYIACPSAAKCDNGCQ-NH2; linker 2-7, 13-17 via Pyridine(2,6-diCH2))
- Ki (Kallikrein-7): 32 nM

SMILES: CSCC[C@@H]1NC(=O)[C@H](Cc2ccc(O)cc2)NC(=O)[C@H](CC(C)C)NC(=O)[C@@H](NC(=O)[C@@H](N)CCC(N)=O)CSCC(=O)CSC[C@@H](C(=O)N[C@@H](CO)C(=O)N2CCC[C@H]2C(=O)N[C@H](C(=O)N[C@H]2CSCC(=O)CSC[C@@H](C(=O)N[C@@H](CCC(N)=O)C(=O)O)NC(=O)[C@H](Cc3ccc(O)cc3)NC(=O)[C@H](CCC(N)=O)NC(=O)[C@H](CCC(N)=O)NC(=O)[C@@H]3CCCN3C2=O)C(C)C)NC(=O)[C@H](CCCNC(=N)N)NC(=O)[C@H](C)NC1=O (H-QCLYMARCSPVCPQQYCQ-OH; linker 2-8, 12-17 via CH2COCH2)
- Ki (Kallikrein-7): 9 nM

SMILES: CSCC[C@H](NC(=O)[C@@H]1CSCc2cccc(n2)CSC[C@H](NC(=O)[C@@H](N)CCCNC(=N)N)C(=O)N[C@@H](CC(=O)O)C(=O)N[C@@H](CO)C(=O)N[C@@H](CO)C(=O)N[C@@H](CCC(N)=O)C(=O)N1)C(=O)N[C@@H](CCC(N)=O)C(=O)NCC(=O)N[C@@H](CCC(N)=O)C(=O)N[C@H]1CSCc2cccc(n2)CSC[C@@H](C(=O)N2CCC[C@H]2C(=O)O)NC(=O)[C@H](CO)NC(=O)[C@H](CCCNC(=N)N)NC(=O)[C@H](Cc2ccc(O)cc2)NC(=O)[C@H](CC(C)C)NC1=O (H-RCDSSQCMQGQCLYRSCP-OH; linker 2-7, 12-17 via Pyridine(2,6-diCH2))
- Ki (Kallikrein-7): 94 nM

SMILES: CC(C)C[C@@H]1NC(=O)[C@H](Cc2ccc(O)cc2)NC(=O)[C@H](CC(C)C)NC(=O)[C@@H](NC(=O)[C@@H]2CCCN2)CSCc2cccc(n2)CSC[C@@H](C(=O)O)NC(=O)[C@H](C)NC1=O (mixture of isomers)
- Ki (Kallikrein-7): 19 nM

SMILES: CC(C)C[C@@H]1NC(=O)[C@@H](NC(=O)[C@@H]2CCCN2)CSCC(=O)CSC[C@@H](C(=O)N[C@@H](CO)C(=O)O)NC(=O)[C@H](CCCNC(=N)N)NC(=O)[C@H](CO)NC(=O)[C@H](CC(C)C)NC(=O)[C@H](Cc2ccc(O)cc2)NC1=O (racemic)
- Ki (Kallikrein-7; cho): 90 nM

SMILES: CC(C)C[C@@H]1NC(=O)[C@@H](NC(=O)C(N)CCC(N)=O)CSCc2cccc(n2)CSC[C@@H](C(=O)N[C@@H](CO)C(=O)O)NC(=O)[C@H](CO)NC(=O)[C@H](CC(C)C)NC(=O)[C@H](Cc2ccc(O)cc2)NC1=O (single isomer, unassigned)
- Ki (Kallikrein-7): 12 nM

SMILES: CC(C)C[C@@H]1NC(=O)[C@@H](NC(=O)C(N)CCCNC(=N)N)CSCc2cccc(n2)CSC[C@@H](C(=O)N[C@@H](CO)C(=O)O)NC(=O)[C@H](CO)NC(=O)[C@H](CC(C)C)NC(=O)[C@H](Cc2ccc(O)cc2)NC1=O (single isomer, unassigned)
- Ki (Kallikrein-7): 8.8 nM
